Measured values reported in patent US5128359A, “Benzimidazole and azabenzimidazole derivatives which are thromboxane receptor antagonists, their methods of preparation” (Laboratoires UPSA, priority 1990, dated 1992).

Target: T1, TXA2 receptors of human platelets (Homo sapiens, UniProt P21731)
T1 construct: Human platelets incubate in the presence of a single concentration; endogenous in cells; host or cells: human platelets
T1 sequence (P21731 1-343): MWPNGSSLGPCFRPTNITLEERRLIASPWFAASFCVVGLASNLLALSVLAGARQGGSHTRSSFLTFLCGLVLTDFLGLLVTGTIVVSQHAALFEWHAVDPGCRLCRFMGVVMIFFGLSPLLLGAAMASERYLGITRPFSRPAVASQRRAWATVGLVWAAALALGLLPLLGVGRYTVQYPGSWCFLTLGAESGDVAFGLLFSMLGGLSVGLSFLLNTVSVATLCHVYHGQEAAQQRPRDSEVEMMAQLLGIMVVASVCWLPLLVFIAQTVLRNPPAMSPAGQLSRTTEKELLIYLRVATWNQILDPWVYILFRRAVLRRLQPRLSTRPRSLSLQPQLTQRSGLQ
Experiment: displacement of radioligand [^125 I]PTA-OH specifically bound to the TXA2 receptors of human platelets
Type: binding
Details: for inhibition at 10 µM / inhibition at 0.1 µM: 0.5 h, 30 minutes at 37° C; for inhibition at 10 µM: 1E-5 M competing agent, read-out: % displacement, Concentration 1E-5 M; for inhibition at 0.1 µM: 1E-7 M competing agent, read-out: % displacement, Concentration 1E-7 M; for Ki: determined according to the formula of CHENG and PRUSOFF, read-out: Ki (inhibition constant)
Description: The affinity of the products of the Examples described for thromboxane A2 receptors is evaluated by the technique of displacing a radioligand specifically bound to the TXA2 receptors of human platelets. […] The reaction is completed by the addition of a buffer, followed by rapid filtration through […] filters. […] The results are expressed, for the doses tested, as the percentage displacement of the radioligand specifically bound to the TXA2 receptors of human platelets.

inhibition at 10 µM [%]	inhibition at 0.1 µM [%]	Ki [nM]	Compound
100	85	31	CC(C)(CC(=O)O)Cc1nc2ccccc2n1Cc1ccc(Cl)cc1 [Example 77, 4-[1-(4-Chlorobenzyl)benzimidazol-2-yl]-3,3-dimethylbutanoic acid]
96	50		CC(C)(CC(=O)O)Cc1nc2ccccc2n1Cc1ccc(O)cc1 [Example 87, 4-[1-(4-Hydroxybenzyl)benzimidazol-2-yl]-3,3-dimethylbutanoic acid]
97	35		CCC(CC)(CC(=O)O)Cc1nc2ccccc2n1Cc1ccc(Cl)cc1 [Example 82, 4-[1-(4-Chlorobenzyl)benzimidazol-2-yl]-3,3-diethylbutanoic acid]
67	38		CC(C)(CC(=O)O)Cc1nc2cc(Br)ccc2n1Cc1ccc(Cl)cc1 [Example 127, 4-[1 (4-Chlorobenzyl)-5-bromobenzimidazol-2-yl]-3,3-dimethylbutanoic acid]

The remaining lines, values behind:

Compound	inhibition at 10 µM [%]	inhibition at 0.1 µM [%]	Ki [nM]
O=C(O)CCCSc1nc2cc(F)ccc2n1Cc1ccc(Cl)cc1 [Example 65, 4-[1-(4-Chlorobenzyl)-5 fluorobenzimidazol-2-yl]mercaptobutanoic acid]	93	8	
CSc1ccc(Cn2c(CC(C)(C)CC(=O)O)nc3cc(F)ccc32)cc1 [Example 96, 4-[1-(4-Methylthiobenzyl)-5-fluorobenzimidazol-2-yl]-3,3-dimethylbutanoic acid]	100	100	5
O=C(O)[C@@H]1CC=CC[C@@H]1c1nc2cc(F)ccc2n1Cc1ccc(Cl)cc1 (relative stereo) [Example 161, Cis-5-[1-(4-chlorobenzyl)-5-fluorobenzimidazol-2-yl]cyclohexene-4-carboxylic acid]	96	15	
CC(C)(CC(=O)O)Cc1nc2cc(F)ccc2n1Cc1ccc(S(C)(=O)=O)cc1 [Example 97, 4-[1-(4-Methylsulfonylbenzyl)-5-fluorobenzimidazol-2-yl]-3,3-dimethylbutanoic acid]	100	100	37
C[S+]([O-])c1ccc(Cn2c(CC(C)(C)CC(=O)O)nc3cc(Cl)ccc32)cc1 (stereo not shown) [Example 118, 4-[1-(4-Methylsulfoxybenzyl)-5-chlorobenzimidazol-2-yl]-3,3-dimethylbutanoic acid]	92	54	
O=C(O)CC1(Cc2nc3cc(F)ccc3n2Cc2ccc(Cl)cc2)CCCCC1 [Example 73, [1-[1-(4-Chlorobenzyl)-5-fluorobenzimidazol-2-yl]methylcyclohex-1-yl]aceticacid]	98	0	807
CC(C)(CC(=O)O)Cc1nc2cc(F)ccc2n1Cc1ccc2ccccc2c1 [Example 147, 4-[1(Naphth-2-ylmethyl)-5-fluorobenzimidazol-2-yl]-3,3-dimethylbutanoic acid]	93	91	
CC(C)(CC(=O)O)Cc1nc2cc(Cl)ccc2n1Cc1ccc(Br)cc1 [Example 139, 4-[1 (4-Bromobenzyl)-5-chlorobenzimidazol-2-yl]-3,3-dimethylbutanoic acid]	100	98	13
CC(C)(CC(=O)O)Cc1nc2cc(Cl)ccc2n1Cc1ccc(Cl)cc1F [Example 123, 4-[1-(2-Fluoro-4-chlorobenzyl)-5-chlorobenzimidazol-2-yl]3,3-dimethylbutanoic acid]	87	77	
